The results in this text go back to patent publication US20160022675A1, “PROCESSES FOR PREPARING TETRAHYDROISOQUINOLINES” (BRISTOL-MYERS SQUIBB COMPANY, priority 2013, published 2016).

SMILES strings stand for the structures. Where two headings read alike, the source gives them in different places.

For data set [1], the target named is T1, DAT (Rattus norvegicus, UniProt P23977).
T1 construct: from tissue; host or cells: rat, in vivo dosing
The data set can be described thus: DAT occupancy, rat. It is filed as in vivo. As for the experimental part:
(§1) The effects of Compound 1-(4S) in the mouse tail suspension model of depression and target site occupancy were assessed to compare occupancies associated with the behavioral response. The mouse tail suspension model is known the art. […] The lowest effective dose of Compound 1-(4S), 0.3 mg/kg, PO, decreased immobility by 77% relative to vehicle-treated controls. […] Administration of Compound 1-(4S) led to dose-dependent occupancy of SERT, NET, and DAT binding sites in the brain. At the lowest behaviorally-effective dose (0.3 mg/kg), occupancies were 86±1% of SERT, 76±3% of NET, and 28±3% of DAT. At 1 mg/kg, occupancies were 89±1%, 82±1% and 54±3% at SERT, NET, and DAT, respectively. Pharmacokinetics and pharmacodynamics (PD) in mouse, rat, and dog focused primarily on DAT occupancy since SERT and NET occupancies were saturated by drug for most, if not all, of the times studied. DAT occupancy increased as a function of increasing plasma exposure. The DAT occupancy to total plasma level could be fitted using a single binding site model and plasma level ED50 (the dose producing 50% effect) values could be calculated.
(§2) To better understand the margin between doses of Compound 1-(4S) that are effective in the mouse tail suspension models and those that lead to monoamine-related side effects, locomotor activity was examined to assess psychostimulant properties and stereotypy was examined to assess more severe DA-related side effects. Increased body temperature, another effect that has been attributed to DA pharmacology, was also studied. In the mouse, Compound 1-(4S) increased locomotor activity and stereotypy scores at doses of 3.0 mg/kg and 10 mg/kg, respectively. Thus, the margin between the Compound 1-(4S) effective dose in the mouse tail suspension and increased locomotor activity was 10-fold and the margin versus activity in stereotypy was 30-fold. The thermogenic effect of Compound 1-(4S) was studied in mice and rats by measuring changes in rectal temperature following administration of the compound. […] The onset of the thermogenesis was earlier as the dose was increased. The levels of SERT and NET occupancy were over 80% and appeared saturated across the doses tested. The DAT occupancy was dose-dependent, with 55±5.7% at 1.0 mg/kg, 74±6% at 3.0 mg/kg, and 83±0.8% at 10 mg/kg. […] The onset of the temperature increase was earlier at the highest dose of 10 mg/kg. […] The DAT occupancy was 37±8.3%, 55±5.2%, and 71±1.7% at 1.0, 3.0, and 10 mg/kg, respectively. Consistent with data obtained with mice, the thermogenic effect of Compound 1-(4S) is dose dependently related to DAT occupancy and at least 50% DAT occupancy is needed for this effect.

Data set [2] addresses T2, NET (Rattus norvegicus, UniProt Q63380).
T2 construct: from tissue; host or cells: rat, in vivo dosing
The data set can be described thus: NET occupancy, rat. The following applies: thermogenesis study, all 3 doses (1.0, 3.0, 10 mg/kg). It counts as in vivo.
Source text: as §2, with “Consistent with data obtained with mice, the thermogenic effect of Compound 1-(4S) is dose dependently related to DAT occupancy and at least 50% DAT occupancy is needed for this effect.” left out

The next data set has as its target SERT (Homo sapiens, UniProt P31645). The data set can be described thus: [3H]5-HT uptake into HEK293/hSERT cells. It is filed as cell-based. The arrangement: expressed in transfected cells; host or cells: HEK293. The note with it: read-out: Serotonin reuptake IC50 ([3H]5-HT uptake). From the text: (§3) Cell-based assays were used to determine the ability of Compound 1-(4S) to inhibit reuptake of 3H-labeled DA ([3H]DA), NE ([3H]NE), and 5-HT ([3H]5-HT).

The next data set deals with cocaine-lever responding. The note with it: rat, in vivo; for cocaine-lever responding: po. As for the experimental part: Compound 1-(4S) was evaluated in a cocaine discrimination assay in rats, a model used to address abuse potential. The cocaine discrimination assay is known the art Compound 1-(4S) was administered and the percentage of rats that responded by selecting the cocaine-associated lever was measured. […] Since the subjective effects of cocaine are evident 15 minutes after dosing, Compound 1-(4S) was tested at the earlier time point. […] In addition, the onset of this partial effect was slower than the onset of the subjective effects of cocaine in this model.

In data set [3] the target is DAT (Canis lupus familiaris, UniProt B6EUL3). The data set can be described thus: DAT occupancy, dog. It is filed as in vivo. The following applies: single binding site model, read-out: total plasma concentration producing 50% effect (EC50), DAT occupancy. How it is done: as §1
The nature of data set [4]: Solubility profile (USP definition) in solvents. It counts as physicochemical.
Data set [5] concerns the target NET (Homo sapiens, UniProt P23975). The data set can be described thus: [3H]NE uptake into HEK293/hNET cells. It counts as cell-based. The arrangement: expressed in transfected cells; host or cells: HEK293. The following applies: read-out: Norepinephrine reuptake IC50 ([3H]NE uptake).
Source text: as §3

T1 sequence (P23977 whole entry): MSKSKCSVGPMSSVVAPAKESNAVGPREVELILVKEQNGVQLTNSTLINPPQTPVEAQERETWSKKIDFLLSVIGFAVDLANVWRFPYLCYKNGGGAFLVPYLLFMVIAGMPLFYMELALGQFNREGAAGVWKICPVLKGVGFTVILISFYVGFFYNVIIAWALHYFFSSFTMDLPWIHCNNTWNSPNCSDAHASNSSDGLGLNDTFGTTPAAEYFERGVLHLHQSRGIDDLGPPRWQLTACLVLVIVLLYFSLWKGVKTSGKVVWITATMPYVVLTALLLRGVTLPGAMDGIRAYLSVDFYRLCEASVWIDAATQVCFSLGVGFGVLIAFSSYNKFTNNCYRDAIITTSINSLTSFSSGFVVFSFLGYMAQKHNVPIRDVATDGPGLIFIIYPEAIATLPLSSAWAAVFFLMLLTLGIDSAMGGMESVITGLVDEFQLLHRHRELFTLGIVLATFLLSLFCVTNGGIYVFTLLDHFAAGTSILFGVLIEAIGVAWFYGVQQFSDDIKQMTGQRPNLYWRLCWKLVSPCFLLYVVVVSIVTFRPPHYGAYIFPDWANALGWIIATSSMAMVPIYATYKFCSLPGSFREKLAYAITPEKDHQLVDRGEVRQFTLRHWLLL
Chain of NET (Homo sapiens, UniProt P23975) (P23975 whole entry): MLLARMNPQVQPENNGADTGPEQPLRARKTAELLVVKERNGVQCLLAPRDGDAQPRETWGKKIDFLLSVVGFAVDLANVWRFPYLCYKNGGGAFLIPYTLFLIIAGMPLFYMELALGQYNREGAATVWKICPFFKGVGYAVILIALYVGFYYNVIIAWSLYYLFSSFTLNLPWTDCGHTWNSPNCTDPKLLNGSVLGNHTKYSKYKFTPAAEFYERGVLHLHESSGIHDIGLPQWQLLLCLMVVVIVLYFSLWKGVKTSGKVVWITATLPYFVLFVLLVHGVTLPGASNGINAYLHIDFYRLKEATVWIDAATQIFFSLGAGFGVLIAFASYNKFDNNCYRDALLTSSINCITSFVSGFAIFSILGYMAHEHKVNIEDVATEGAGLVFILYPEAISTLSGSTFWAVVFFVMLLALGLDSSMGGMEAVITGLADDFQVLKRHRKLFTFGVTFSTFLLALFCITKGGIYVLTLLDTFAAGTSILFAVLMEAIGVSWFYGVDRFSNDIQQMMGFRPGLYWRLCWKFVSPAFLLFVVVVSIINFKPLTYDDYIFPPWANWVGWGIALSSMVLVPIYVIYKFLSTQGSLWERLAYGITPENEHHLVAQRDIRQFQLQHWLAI
Chain of SERT (P31645 whole entry): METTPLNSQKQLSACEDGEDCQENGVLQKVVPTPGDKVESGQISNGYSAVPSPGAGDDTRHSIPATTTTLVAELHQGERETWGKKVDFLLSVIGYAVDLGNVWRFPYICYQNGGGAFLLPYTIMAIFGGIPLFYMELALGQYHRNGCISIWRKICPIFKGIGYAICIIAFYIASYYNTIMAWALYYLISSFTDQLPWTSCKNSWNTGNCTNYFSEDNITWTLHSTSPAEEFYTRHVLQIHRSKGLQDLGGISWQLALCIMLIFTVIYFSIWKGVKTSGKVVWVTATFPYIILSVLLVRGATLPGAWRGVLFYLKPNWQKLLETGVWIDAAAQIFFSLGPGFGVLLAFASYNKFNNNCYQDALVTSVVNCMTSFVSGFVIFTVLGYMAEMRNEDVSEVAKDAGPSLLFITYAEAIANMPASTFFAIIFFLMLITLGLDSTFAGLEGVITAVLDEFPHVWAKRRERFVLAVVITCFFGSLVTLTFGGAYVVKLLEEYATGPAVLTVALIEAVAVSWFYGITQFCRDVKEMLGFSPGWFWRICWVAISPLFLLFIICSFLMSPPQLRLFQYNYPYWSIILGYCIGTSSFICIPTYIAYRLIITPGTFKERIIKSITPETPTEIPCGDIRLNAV
Chain of DAT (Canis lupus familiaris, UniProt B6EUL3) (B6EUL3 1-617): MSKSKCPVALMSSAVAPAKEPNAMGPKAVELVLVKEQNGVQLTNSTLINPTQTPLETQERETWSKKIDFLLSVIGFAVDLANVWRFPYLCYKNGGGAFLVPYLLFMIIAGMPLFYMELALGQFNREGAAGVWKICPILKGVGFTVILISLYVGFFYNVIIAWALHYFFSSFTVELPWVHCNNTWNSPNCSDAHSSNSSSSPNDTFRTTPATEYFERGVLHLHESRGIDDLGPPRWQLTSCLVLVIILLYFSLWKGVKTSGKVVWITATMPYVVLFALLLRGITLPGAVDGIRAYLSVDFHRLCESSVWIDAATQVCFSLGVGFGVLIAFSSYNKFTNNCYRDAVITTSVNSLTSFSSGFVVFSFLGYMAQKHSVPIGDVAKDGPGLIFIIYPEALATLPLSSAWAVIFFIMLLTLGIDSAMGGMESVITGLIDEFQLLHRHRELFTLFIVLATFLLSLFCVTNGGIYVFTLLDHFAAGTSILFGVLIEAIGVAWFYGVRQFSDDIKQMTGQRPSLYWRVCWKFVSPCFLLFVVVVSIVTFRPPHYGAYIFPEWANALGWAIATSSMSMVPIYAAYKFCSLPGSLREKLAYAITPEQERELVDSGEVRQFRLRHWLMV
T2 sequence (Q63380 1-617): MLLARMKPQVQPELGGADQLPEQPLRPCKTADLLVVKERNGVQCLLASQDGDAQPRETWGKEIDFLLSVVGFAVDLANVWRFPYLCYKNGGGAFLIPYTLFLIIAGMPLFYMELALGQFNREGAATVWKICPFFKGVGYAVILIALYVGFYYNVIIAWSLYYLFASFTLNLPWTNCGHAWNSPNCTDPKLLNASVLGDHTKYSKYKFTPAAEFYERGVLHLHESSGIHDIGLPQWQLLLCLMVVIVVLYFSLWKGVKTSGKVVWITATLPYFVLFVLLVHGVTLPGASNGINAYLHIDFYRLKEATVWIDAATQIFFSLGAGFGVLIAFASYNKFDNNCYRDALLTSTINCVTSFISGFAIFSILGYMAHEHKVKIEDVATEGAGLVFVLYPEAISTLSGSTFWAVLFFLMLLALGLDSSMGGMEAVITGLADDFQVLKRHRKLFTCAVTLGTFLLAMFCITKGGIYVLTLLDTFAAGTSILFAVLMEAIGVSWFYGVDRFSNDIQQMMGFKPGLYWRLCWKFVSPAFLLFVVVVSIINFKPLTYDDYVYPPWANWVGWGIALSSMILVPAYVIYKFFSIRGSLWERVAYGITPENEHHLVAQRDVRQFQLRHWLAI

The IC50 is the concentration that gives 50% inhibition. For `CN1Cc2cc(-c3ccc(N)nn3)ccc2[C@H](c2ccc3ccccc3c2)C1` [Compound 1-(4S), 6-[(4S)-1,2,3,4-tetrahydro-2-methyl-4-(2-naphthalenyl)-7-isoquinolinyl]-3-pyridazinamine], the EC50 was found to be 47 nM at DAT [1] (single binding site model, read-out: total plasma concentration producing 50% effect (EC50), DAT occupancy) and 103 nM on DAT [3]. On DAT [1] (thermogenesis study, 1.0 mg/kg), this molecule returned a receptor occupancy at 1 mg/kg of 37 ± 8.3%. On DAT [1] (thermogenesis study, 3.0 mg/kg), this molecule showed a receptor occupancy at 3 mg/kg of 55 ± 5.2%. The same molecule gave a receptor occupancy at 10 mg/kg on DAT [1] (thermogenesis study, 10 mg/kg) of 71 ± 1.7%. The NET occupancy result at NET [2] is given as “nearly saturated”. Further, the IC50 on SERT amounted to 18.5 ± 5.5 nM; on NET [5], 37.5 ± 2.5 nM. In addition, the “substitution for the cocaine stimulus” value in the data set on cocaine-lever responding is “partially substituted for the cocaine stimulus”. For the same molecule, the cocaine-lever responding entry is “less than 1%” in the data set with cocaine-lever responding (0.1 mg/kg, 60 min); 11% with cocaine-lever responding (0.3 mg/kg, 15 min); 53% with cocaine-lever responding (0.3 mg/kg, 60 min); 10% in the data set on cocaine-lever responding (1 mg/kg, 15 min); 28% in the data set on cocaine-lever responding (3 mg/kg, 15 min). For the same molecule, the “Solubility profile (USP definition)” value in data set [4] (N,N-dimethylacetamide, dimethylsulfoxide) is given as “soluble: N,N-dimethylacetamide, dimethylsulfoxide”; in data set [4] (PEG 400) it was “sparingly soluble: PEG 400”; in data set [4] (acetonitrile, ethyl acetate, n-butanol), “very slightly soluble: acetonitrile, ethyl acetate,”; in data set [4] (isopropanol, acetone, ethanol, methanol, propylene glycol, dichloromethane), “slightly soluble: isopropanol, acetone, ethanol,”; in data set [4] (n-heptane), “practically insoluble: n-heptane”; in data set [4] (tetrahydrofuran), “freely soluble: tetrahydrofuran”.
